Patent US12636299B2, “Terpenoid derivatives, pharmaceutical preparations containing these derivatives and their use in neuroprotection” (UNIVERZITA PALACKEHO V OLOMOUCI, priority 2020, dated 2026)

How the values were obtained:
[1] = tested on: human neuroblastoma cell line SH-SY5Y; test: Viability of differentiated SH-SY5Y in salsolinol-induced model of PD (Calcein AM); format: cell-based; conditions: for Neuroprotective effect (% of control): difference between 800 μM SAL and co-treatment group means, 24 hours; for effect on SH-SY5Y viability in salsolinol model, in words: 800 μM salsolinol, comparison with NAC
Protocol: Similarly, as in previous “Safety test”, the SH-SY5Y cells were seeded at density 7000 cells/well. After 48 h differentiation, old 1% DMEM/F12 media was replaced by fresh media containing 800 μM salsolinol (SAL) and tested compounds in 0.1, 1 and 10 μM concentrations. N-acetylcystein were chosen as positive control. After 24 hours, the cell viability was measured by Calcein AM viability assay. The values in Table 2 show % of viability of all tested compounds relative to control. The control (medium with DMSO, <0.1% (v/v)) was postulated as 100% viability (see the first line of the table), while the SAL exposure lead to decrease of viability to 65.4±0.97%.

[2] = tested on: SH-SY5Y human neuroblastoma cell line; test: Cytotoxicity, Calcein AM viability assay on neuron-like SH-SY5Y cells; format: cell-based; conditions: 24 h
Protocol: The SH-SY5Y human neuroblastoma cell line obtained from ECACC (The European Collection of Authenticated Cell Cultures) was cultivated in Dulbecco's modified Eagle's Medium and Ham's F12 Nutrient Mixture (DMEM:F-12, 1:1), supplemented with 10% fetal bovine serum (FBS) and 1% penicillin and streptomycin at 37° C. in a humidified atmosphere 5% CO2, 95% humidity in passage limit up to ECACC+20. The assay was performed in 96-well microplate with 7000 SH-SY5Y cells per well. After 48 h, old DMEM/F12 media was removed by fresh media containing tested compounds at 0.1, 1 and 10 μM concentrations for 24 h. Glial cell line A-172 purchased from ATCC and grown in same conditions as SH-SY5Y cell line. A-172 cells were seeded in density 2000 cells per well and growing medium was replaced by treatment medium containing tested compounds in 0.1, 1 and 10 μM concentration; or in higher concentrations for R-LA or NAC positive controls for 48 hours. All tested compounds dissolved in DMSO were added into the medium. The maximum concentration of DMSO in media was kept below 0.1% (v/v). The cell viability was measured by Calcein AM (1 mg/ml ThermoFisher) viability assay. Solution of Calcein AM in PBS (0.75 μM) was pipetted to cells and incubated for 50 min. After that the fluorescence was measured at 488/517 nm (excitation/emission) using microplate reader Infinite M200 (TECAN). Calcein AM assay is based on the dye-intracellular-esterase cleavage of non-fluorescent dye (Calcein AM) by living cells to fluorescent dye (Calcein), while dying cells lose such ability. The values in Table 2 show the % of viability compared to control for all tested compounds. The results from DMSO control (medium with DMSO, <0.1% (v/v)) was postulated as 100% viability (see the first line of Table 2).

glial A-172 cells [3] = test: Cytotoxicity, Calcein AM viability assay on glial A-172 cells; format: cell-based, human; conditions: 48 hours
caspase-3,7 activity = test: Caspase-3,7 activity in salsolinol-induced model of PD on SH-SY5Y (Ac-DEVD-AMC); format: cell-based, human; conditions: for Caspase-3,7 activity (% of 800 μM SAL control): percentages of control (800 μM SAL = 100), 24 hour co-treatment; for reduction of caspase-3,7 activity, in words: 800 μM SAL, compounds 3 and 4 at 10 μM compared with NAC; for efficacy relative to positive controls (by used concentration): caspase-3,7 activity, salsolinol model
Protocol: Similarly, as shown in previous assay, cells grew on 96 multiwell plates at density 20000 cells per well underwent differentiation and treatment procedure for salsolinol model. After 24 hour co-treatment with salsolinol, caspase-3,7 (casp-3,7) activity as marker of apoptosis was quantified by its substrate Ac-DEVD-AMC according to Carrasco et al. (2003, BioTechniques, 34, 1064-1067). In this model, overall casp-3,7 activity induced by 800 μM SAL was consider as 100% and thus the reduction in casp-3,7 was observed after treatment with the protective terpenoid derivatives. As shown in Table 4 and FIG. 2, 800 μM SAL induced 2.9-fold increase.

astrocyte A-172 cells = test: 3NPA-induced model of Huntington's disease, astrocyte A-172 cells; format: cell-based, human; conditions: for Astro-protective effect (% of control): difference to 10 mM 3NPA, 48 h; for protective effect on astrocytes in 3NPA model, in words: A-172 cells, comparison with R-LA
Protocol: (§1) Before application of toxin 3-nitropropionic acid (3NPA) for mimicking Huntington's disease, the 3NPA was dissolved in water and neutralized by sodium hydroxide. SH-SY5Y cells were seeded in the same density and differentiated by the procedure shown above. Astrocyte cells A-172 were also seeded as described in previous section. Both cell lines were co-treated by 3NPA (20 mM for SH-SY5Y cells, […]) and tested compounds at 0.1, 1 and 10 μM concentration for 48 h.

glial A-172 cells [4] = test: Cytotoxicity, Calcein AM viability assay on glial A-172 cells; format: cell-based, human; conditions: NAC at 1000 μM
Protocol: The assay was performed in 96-well microplate with 7000 SH-SY5Y cells per well. After 48 h, old DMEM/F12 media was removed by fresh media containing tested compounds at 0.1, 1 and 10 μM concentrations for 24 h. Glial cell line A-172 purchased from ATCC and grown in same conditions as SH-SY5Y cell line. […] All tested compounds dissolved in DMSO were added into the medium. The maximum concentration of DMSO in media was kept below 0.1% (v/v). The cell viability was measured by Calcein AM (1 mg/ml ThermoFisher) viability assay. Solution of Calcein AM in PBS (0.75 μM) was pipetted to cells and incubated for 50 min. After that the fluorescence was measured at 488/517 nm (excitation/emission) using microplate reader Infinite M200 (TECAN). Calcein AM assay is based on the dye-intracellular-esterase cleavage of non-fluorescent dye (Calcein AM) by living cells to fluorescent dye (Calcein), while dying cells lose such ability.

[5] = tested on: superoxide radical formation; test: Oxidative stress (superoxide radical formation, DHE) in 3NPA-induced model on SH-SY5Y; format: cell-based, human; conditions: for Superoxide radical formation (oxidative stress) %: 20 mM 3NPA = 100%, 24 hours
Protocol: Similarly, to previous assay, cells grown on 96-multiwell plates at density 20000 cells per well underwent differentiation and treatment procedure with 3-nitropropionic acid (3NPA) in this model. After 24 hours of co-treatment with 20 mM 3NPA, superoxide radical's formation as a marker of oxidative stress was quantified by dihydroethidium according to Kim et al. (2017, J. Med. Food, 20, 140-151). Briefly, neuron-like SH-SY5Y cells were centrifuged at 500 g for 5 min and 30 s, then media were replaced by 10 μM DHE PBS solution and kept at room temperature for 30 min. After that, DHE was read at 500 nm/580 nm (excitation/emission) by Infinite M200 Pro (Tecan) microplate reader. DHE is cell permeable dye which is selective for superoxide radical detection. Overall oxidative stress achieved by 20 mM 3NPA was consider as 100% and thus the reduction in superoxide radical's formation (OS reducing effect) was determined. As shown in Table 6 and FIG. 2, 20 mM 3NPA induced 2.7-fold increase in superoxide radical's formation.

[6] = tested on: human neuron-like SH-SY5Y cells; test: 3NPA-induced model of Huntington's disease, neuron-like SH-SY5Y cells; format: cell-based; conditions: difference to 20 mM 3NPA, 48 h
Protocol: as §1

Structure (SMILES) | Neuroprotective effect (% of control) ([1]; 0.1 μM) | Neuroprotective effect (% of control) ([1]; 1 μM) | Neuroprotective effect (% of control) ([1]; 10 μM) | viability, percentage of DMSO control ([2]; 0.1 μM) | viability, percentage of DMSO control ([2]; 1 μM) | viability, percentage of DMSO control ([2]; 10 μM) | viability, percentage of DMSO control (glial A-172 cells [3]; 0.1 μM) | viability, percentage of DMSO control (glial A-172 cells [3]; 1 μM) | viability, percentage of DMSO control (glial A-172 cells [3]; 10 μM) | Caspase-3,7 activity (% of 800 μM SAL control) (caspase-3,7 activity; 1 μM) | Caspase-3,7 activity (% of 800 μM SAL control) (caspase-3,7 activity; 10 μM) | reduction of caspase-3,7 activity, in words (caspase-3,7 activity) | Astro-protective effect (% of control) (astrocyte A-172 cells; A-172, 0.1 μM) | Astro-protective effect (% of control) (astrocyte A-172 cells; A-172, 1 μM) | Astro-protective effect (% of control) (astrocyte A-172 cells; A-172, 10 μM) | Superoxide radical formation (oxidative stress) % ([5]; 0.1 μM) | Superoxide radical formation (oxidative stress) % ([5]; 1 μM) | Superoxide radical formation (oxidative stress) % ([5]; 10 μM) | Neuro-protective effect (% of control) ([6]; 0.1 μM) | Neuro-protective effect (% of control) ([6]; 1 μM) | also measured
C=C(C(=O)OCc1ccncc1)C1CCC2(COC(C)=O)CCC3(C)C(CCC4C5(C)CCC(OC(C)=O)C(C)(C)C5CCC43C)C12 (stereo not drawn) [Compound 3, Pyridin-4-yl-methyl 3β,28-bis(acetyloxy)lup-20(30)-en-29-oate] | N/A (N/A = no protection) | 33.10 % of control | 21.50 % of control | 115.8% | 145.0% | 137.4% | 95.5% | 98.2% | 71.7% | 73.7% | 55.6% | comparable | N/A (N/A = no protection) | 11.98 % of control | N/A (N/A = no protection) | 88.4% | 79.0% | 81.9% | N/A (N/A = no protection) | 39.96 % of control | effect on SH-SY5Y viability in salsolinol model, in words [1]: better effect than 1000 μM NAC; efficacy relative to positive controls (by used concentration) (caspase-3,7 activity): 10 fold; protective effect on astrocytes in 3NPA model, in words (astrocyte A-172 cells): positive effect comparable to R-LA control; effect on viability of astrocytes, in words (glial A-172 cells [4]): slight decrease in percentage of living cells; OS reducing effect, in words ([5]; 10 μM, comparison with 100 μM NAC): even stronger activity toward oxidative stress; Neuro-protective effect (% of control) ([6]; 10 μM): 24.13 % of control
C=C(C(=O)OCc1ccco1)C1CCC2(COC(C)=O)CCC3(C)C(CCC4C5(C)CCC(OC(C)=O)C(C)(C)C5CCC43C)C12 (stereo not drawn) [Compound 5, Furan-2-yl-methyl 3β,28-diacetyloxylup-20(29)-en-30-oate] | N/A (N/A = no protection) | N/A (N/A = no protection) | 18.96 % of control | 91.9% | 106.4% | 129.5% | 96.6% | 100.0% | 90.8% | 86.8% | 76.5% | positive effect on casp-3,7 activity | N/A (N/A = no protection) | 12.87 % of control | 14.05 % of control | 94.1% | 87.3% | 87.1% | N/A (N/A = no protection) | N/A (N/A = no protection) | effect on SH-SY5Y viability in salsolinol model, in words [1]: better effect than 1000 μM NAC; efficacy relative to positive controls (by used concentration) (caspase-3,7 activity): 10 fold; protective effect on astrocytes in 3NPA model, in words (astrocyte A-172 cells): positive effect comparable to R-LA control; Neuro-protective effect (% of control) ([6]; 10 μM): 20.63 % of control
C=C(C(=O)OCc1cccs1)C1CCC2(COC(C)=O)CCC3(C)C(CCC4C5(C)CCC(OC(C)=O)C(C)(C)C5CCC43C)C12 (stereo not drawn) [Compound 6, Thiophen-2-ylmethyl 3β,28-diacetyloxy-lup-20(29)-en-30-oate] | N/A (N/A = no protection) | N/A (N/A = no protection) | 7.38 % of control | 92.1% | 96.2% | 113.5% | 99.9% | 98.4% | 96.2% | 93.2% | 88.3% | positive effect on casp-3,7 activity | 4.27 % of control | 4.57 % of control | 7.45 % of control | 92.2% | 89.9% | 88.0% | N/A (N/A = no protection) | N/A (N/A = no protection) | Neuro-protective effect (% of control) ([6]; 10 μM): 20.53 % of control
